Data on 18 compounds can be found in paper PMC5718994, “Synthesis and analytical characterization of new thiazol-2-(3H)-ones as human neutrophil elastase (HNE) inhibitors” (Chemistry Central Journal, 2017).

In data set [1] the test system is HNE. To be noted: HNE inhibitor, Fig. 1; cited from earlier work.
The target in data set [2] is T1, HNE (Calbiochem) (Homo sapiens, UniProt P08246).
T1 construct: purchased Calbiochem
T1 sequence (P08246 30-267): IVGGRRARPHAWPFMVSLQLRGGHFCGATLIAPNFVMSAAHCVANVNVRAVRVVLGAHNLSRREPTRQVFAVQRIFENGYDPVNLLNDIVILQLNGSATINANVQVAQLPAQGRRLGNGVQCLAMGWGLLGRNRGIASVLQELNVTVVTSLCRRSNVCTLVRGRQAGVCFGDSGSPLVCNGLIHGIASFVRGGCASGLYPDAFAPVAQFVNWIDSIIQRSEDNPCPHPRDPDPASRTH
As to the kind of experiment: HNE inhibition assay. The data set is classed as biochemical. The settings on record: highest concentration tested 40 µM. How it is done: Compounds were dissolved in 100% DMSO at 5 mM stock concentrations. The final concentration of DMSO in the reactions was 1%, and this level of DMSO had no effect on enzyme activity. The HNE inhibition assay was performed in black flat-bottom 96-well microtiter plates. Briefly, a buffer solution containing 200 mM Tris–HCl, pH 7.5, 0.01% bovine serum albumin, and 0.05% Tween-20 and 20 mU/mL of HNE (Calbiochem) was added to wells containing different concentrations of each compound. The reaction was initiated by addition of 25 μM elastase substrate (N-methylsuccinyl-Ala–Ala-Pro-Val-7-amino-methyl-coumarin, Calbiochem) in a final reaction volume of 100 μL/well. Kinetic measurements were obtained every 30 s for 10 min at 25 °C using a Fluoroskan Ascent FL fluorescence microplate reader (Thermo Electron, MA) with excitation and emission wavelengths at 355 and 460 nm, respectively.

The term IC50 denotes the concentration needed to halve the response being measured. For orientation: melting point means the temperature of the solid-liquid transition.

Regarding `Cc1c(-c2ccnn2C)cc(C(=O)NCc2ccc(S(C)(=O)=O)cn2)c(=O)n1-c1cccc(C(F)(F)F)c1` [Alvelestat], the IC50 in data set [1] was 12 nM.
The compound `O=C(Cn1c(-c2ccccc2)csc1=O)Nc1ccccc1` [Compound 2a, 2-(2-Oxo-4-phenylthiazol-3(2H)-yl)-N-phenylacetamide] yielded a melting point of 177 to 179 °C.
Same read-out and setting: in the case of `O=C(Cn1c(-c2ccccc2)csc1=O)Nc1c(Cl)cccc1Cl` [Compound 2b, N-(2,6-dichlorophenyl)-2-(2-oxo-4-phenylthiazol-3(2H)-yl)acetamide] it was 213 to 216 °C.
The same measure, in the same setting: the value for `CC(=O)c1sc(=O)n(CC(=O)Nc2ccccc2)c1C` [Compound 2c, 2-(5-Acetyl-4-methyl-2-oxothiazol-3(2H)-yl)-N-phenylacetamide] was 188 to 190 °C; that for `CC(=O)c1sc(=O)n(CC(=O)Nc2c(Cl)cccc2Cl)c1C` [Compound 2d, 2-(5-Acetyl-4-methyl-2-oxothiazol-3(2H)-yl)-N-(2,6-dichlorophenyl)acetamide] was 209 to 211 °C.
On to `Cc1csc(=O)n1CC(=O)Nc1ccccc1` [Compound 2e, 2-(4-Methyl-2-oxothiazol-3(2H)-yl)-N-phenylacetamide], for which the melting point was in the range of 188 to 191 °C.
In turn, `Cc1csc(=O)n1CC(=O)Nc1c(Cl)cccc1Cl` [Compound 2f, N-(2,6-dichlorophenyl)-2-(4-methyl-2-oxothiazol-3(2H)-yl)acetamide] returned a melting point of 266 to 269 °C.
On the same count and under the same terms, the value for `Cc1cccc(-n2c(-c3ccccc3)csc2=O)c1` [Compound 3a, 4-Phenyl-3-m-tolyl-thiazol-2(3H)-one] was 118 to 121 °C; that for `O=c1scc(-c2ccccc2)n1-c1cccc(C(F)(F)F)c1` [Compound 3b, 4-Phenyl-3-[3-(trifluoromethyl)phenyl]thiazol-2(3H)-one] was 84 to 87 °C; that for `CC(=O)c1sc(=O)n(-c2cccc(C)c2)c1C` [Compound 3c, 5-Acetyl-4-methyl-3-m-tolylthiazol-2(3H)-one] was 104 to 106 °C.
Same read-out and setting: the value for `CC(=O)c1sc(=O)n(-c2cccc(C(F)(F)F)c2)c1C` [Compound 3d, 5-Acetyl-4-methyl-3-[3-(trifluoromethyl)phenyl]thiazol-2(3H)-one] was 147 to 150 °C; that for `Cc1cccc(-n2c(C)csc2=O)c1` [Compound 3e, 4-Methyl-3-m-tolyl-thiazol-2(3H)-one] was 69 to 72 °C.
As for `O=C(OCn1c(-c2ccccc2)csc1=O)c1ccccc1` [Compound 5a, (2-Oxo-4-phenylthiazol-3(2H)-yl)methyl benzoate], the HNE inhibitory activity result in data set [2] was “inactivity”.
In turn, `CC(=O)c1sc(=O)n(COC(=O)c2ccccc2)c1C` [Compound 5b, (5-Acetyl-4-methyl-2-oxothiazol-3(2H)-yl)methyl benzoate] showed a melting point of 121 to 123 °C. The HNE inhibitory activity entry in data set [2] is listed as “inactivity”.
Consider `Cc1cccc(Cn2c(-c3ccccc3)csc2=O)c1` [Compound 5c, 3-(3-Methylbenzyl)-4-phenylthiazol-2(3H)-one], for which the HNE inhibitory activity result in data set [2] was “inactive”.
On the same count and under the same terms, the value for `O=C(OCOc1nc(-c2ccccc2)cs1)c1ccccc1` [Compound 6a, (4-Phenylthiazol-2-yloxy)methyl benzoate] was “inactivity”; that for `CC(=O)c1sc(OCOC(=O)c2ccccc2)nc1C` [Compound 6b, (5-Acetyl-4-methylthiazol-2-yloxy)methyl benzoate] was “inactivity”; that for `Cc1cccc(COc2nc(-c3ccccc3)cs2)c1` [Compound 6c, 2-(3-Methylbenzyloxy)-4-phenylthiazole] was “inactive”.
